Data: patent EP0007672A1, “Isocyanoalkenes, process and useful intermediates for their preparation, pharmaceutical and fungicidal preparations containing those isocyanoalkenes and the use of the fungicidal preparations in agriculture” (GIST-BROCADES N.V., priority 1978, dated 1980)
Values after ≈ are worked out from the molar mass of the structure shown. Read-outs that look alike come from different tables or passages of the source.

What was measured:
Experiment in all cases: MIC (Minimum Inhibitory Concentration)
Assay type in all cases: cell-based
Candida albicans = system: Candida albicans
Fusarium (bulb) = Fusarium (bulb) A 3252
Fusarium (tulip) = Fusarium (tulip) A 3253
Fusarium solani = conditions: read-out: MIC values
Rhizoctonia solani = conditions: read-out: MIC values
Trichophyton equinum = system: Trichophyton equinum
[1] = system: Trichophyton mentagrophytus
Trichophyton quickeaneum = conditions: read-out: MIC values
Trichophyton rubrum = system: Trichophyton rubrum
[2] = system: Trichophyton schoenleinii; conditions: read-out: MIC values
[3] = system: Trichophyton soudanese joyeux; conditions: read-out: MIC values
Trichophyton violoceum = conditions: read-out: MIC values

Q: For `[C-]#[N+]C(=Cc1ccccc1)S(=O)(=O)c1ccc(C)cc1` [Example 1, 1-isocyano-2-phenyl-1-(4-toluenesulphonyl)-ethene], which MIC (Candida albicans; Candida albicans A 7, read-out: MIC values) is on record?
A: 1.5 µg/mL (≈ 5.29 µM)

Q: And the MIC (Candida albicans; Candida albicans A 3140, read-out: MIC values)?
A: 12.5 µg/mL (≈ 44.1 µM)

Q: What about the MIC (Candida albicans; Candida albicans A 3141, read-out: MIC values) of the same molecule?
A: 12.5 µg/mL (≈ 44.1 µM)

Q: What about the MIC (Candida albicans; Candida albicans A 3142, read-out: MIC values) of the same molecule?
A: 12.5 µg/mL (≈ 44.1 µM)

Q: And the MIC (Candida albicans; Candida albicans A 3143, read-out: MIC values)?
A: 12.5 µg/mL (≈ 44.1 µM)

Q: What about the MIC (Candida albicans; Candida albicans A 3144, read-out: MIC values) of the same molecule?
A: 12.5 µg/mL (≈ 44.1 µM)

Q: And the MIC (Candida albicans; Candida albicans A 3145, read-out: MIC values)?
A: 12.5 µg/mL (≈ 44.1 µM)

Q: And the MIC (Candida albicans; Candida albicans A 3165, read-out: MIC values)?
A: 25 µg/mL (≈ 88.2 µM)

Q: What about the MIC (Candida albicans; Candida albicans A 3166, read-out: MIC values) of the same molecule?
A: 12.5 µg/mL (≈ 44.1 µM)

Q: What about the MIC (Candida albicans; Candida albicans A 3167, read-out: MIC values) of the same molecule?
A: 25 µg/mL (≈ 88.2 µM)

Q: What about the MIC (Candida albicans; Candida albicans A 3168, read-out: MIC values) of the same molecule?
A: 12.5 µg/mL (≈ 44.1 µM)

Q: And the MIC (Candida albicans; Candida albicans A 3169, read-out: MIC values)?
A: 12.5 µg/mL (≈ 44.1 µM)

Q: And the MIC (Candida albicans; Candida albicans A 3171, read-out: MIC values)?
A: 12.5 µg/mL (≈ 44.1 µM)

Q: And the MIC (Candida albicans; Candida albicans A 3184, read-out: MIC values)?
A: 12.5 µg/mL (≈ 44.1 µM)

Q: What about the MIC (Candida albicans; Candida albicans A 3190, read-out: MIC values) of the same molecule?
A: 6 µg/mL (≈ 21.2 µM)

Q: What about the MIC (Candida albicans; Candida albicans A 3191, read-out: MIC values) of the same molecule?
A: 12.5 µg/mL (≈ 44.1 µM)

Q: And the MIC (Candida albicans; Candida albicans A 3192, read-out: MIC values)?
A: 6 µg/mL (≈ 21.2 µM)

Q: What about the MIC (Candida albicans; Candida albicans A 3194, read-out: MIC values) of the same molecule?
A: 25 µg/mL (≈ 88.2 µM)

Q: What about the MIC (Candida albicans; Candida albicans A 3196, read-out: MIC values) of the same molecule?
A: 12.5 µg/mL (≈ 44.1 µM)

Q: And the MIC (Fusarium (bulb))?
A: > 100 µg/mL

Q: And the MIC (Fusarium (tulip))?
A: 50 µg/mL (≈ 176 µM)

Q: What about the MIC (Fusarium solani; Fusarium solani A 3245) of the same molecule?
A: 50 µg/mL (≈ 176 µM)

Q: What about the MIC (Rhizoctonia solani; Rhizoctonia solani 200-25) of the same molecule?
A: 4.5 µg/mL (≈ 15.9 µM)

Q: And the MIC (Trichophyton equinum; Trichophyton equinum 182-76, read-out: MIC values)?
A: 3 µg/mL (≈ 10.6 µM)

Q: And the MIC (Trichophyton equinum; Trichophyton equinum 856-71, read-out: MIC values)?
A: 3 µg/mL (≈ 10.6 µM)

Q: What about the MIC ([1]; Trichophyton mentagrophytus 367-68, read-out: MIC values) of the same molecule?
A: 1.5 µg/mL (≈ 5.29 µM)

Q: What about the MIC ([1]; Trichophyton mentagrophytus 421-67, read-out: MIC values) of the same molecule?
A: 1.5 µg/mL (≈ 5.29 µM)

Q: And the MIC ([1]; Trichophyton mentagrophytus A 3252, read-out: MIC values)?
A: 1.5 µg/mL (≈ 5.29 µM)

Q: And the MIC ([1]; Trichophyton mentagrophytus R 177, read-out: MIC values)?
A: 6 µg/mL (≈ 21.2 µM)

Q: And the MIC ([1]; Trichophyton mentagrophytus R 178, read-out: MIC values)?
A: > 100 µg/mL

Q: What about the MIC ([1]; Trichophyton mentagrophytus RRL 305, read-out: MIC values) of the same molecule?
A: 6 µg/mL (≈ 21.2 µM)

Q: What about the MIC (Trichophyton quickeaneum; Trichophyton quickeaneum A 2040) of the same molecule?
A: 3 µg/mL (≈ 10.6 µM)

Q: And the MIC (Trichophyton rubrum; Trichophyton rubrum 494-62, read-out: MIC values)?
A: 0.1 µg/mL (≈ 0.353 µM)

Q: What about the MIC ([2]; Trichophyton schoenleinii 435-63) of the same molecule?
A: 0.1 µg/mL (≈ 0.353 µM)

Q: And the MIC ([3]; Trichophyton soudanese joyeux 440-63)?
A: 12.5 µg/mL (≈ 44.1 µM)

Q: And the MIC (Trichophyton violoceum; Trichophyton violoceum 442-62)?
A: 0.1 µg/mL (≈ 0.353 µM)

Q: With `[C-]#[N+]C(=C1CCCCC1)S(=O)(=O)c1ccc(C)cc1` [Example 7, a-cyclohexylidene-a-(4-toluenesulphonyl)-methylisocyanide] as the molecule, how does the MIC (Candida albicans; read-out: MIC values, Candida albicans A 7) read?
A: 0.8 µg/mL (≈ 2.91 µM)

Q: What about the MIC (Candida albicans; read-out: MIC values, Candida albicans A 3140) of the same molecule?
A: 3 µg/mL (≈ 10.9 µM)

Q: And the MIC (Candida albicans; read-out: MIC values, Candida albicans A 3141)?
A: 12.5 µg/mL (≈ 45.4 µM)

Q: What about the MIC (Candida albicans; read-out: MIC values, Candida albicans A 3142) of the same molecule?
A: 12.5 µg/mL (≈ 45.4 µM)

Q: And the MIC (Candida albicans; read-out: MIC values, Candida albicans A 3143)?
A: 6 µg/mL (≈ 21.8 µM)

Q: And the MIC (Candida albicans; read-out: MIC values, Candida albicans A 3144)?
A: 6 µg/mL (≈ 21.8 µM)

Q: And the MIC (Candida albicans; read-out: MIC values, Candida albicans A 3145)?
A: 6 µg/mL (≈ 21.8 µM)

Q: What about the MIC (Candida albicans; read-out: MIC values, Candida albicans A 3165) of the same molecule?
A: 6 µg/mL (≈ 21.8 µM)

Q: What about the MIC (Candida albicans; read-out: MIC values, Candida albicans A 3166) of the same molecule?
A: 6 µg/mL (≈ 21.8 µM)

Q: What about the MIC (Candida albicans; read-out: MIC values, Candida albicans A 3167) of the same molecule?
A: 6 µg/mL (≈ 21.8 µM)

Q: And the MIC (Candida albicans; read-out: MIC values, Candida albicans A 3168)?
A: 6 µg/mL (≈ 21.8 µM)

Q: What about the MIC (Candida albicans; read-out: MIC values, Candida albicans A 3169) of the same molecule?
A: 6 µg/mL (≈ 21.8 µM)

Q: And the MIC (Candida albicans; read-out: MIC values, Candida albicans A 3171)?
A: 6 µg/mL (≈ 21.8 µM)

Q: And the MIC (Candida albicans; read-out: MIC values, Candida albicans A 3184)?
A: 3 µg/mL (≈ 10.9 µM)

Q: And the MIC (Candida albicans; read-out: MIC values, Candida albicans A 3190)?
A: 3 µg/mL (≈ 10.9 µM)

Q: What about the MIC (Candida albicans; read-out: MIC values, Candida albicans A 3191) of the same molecule?
A: 6 µg/mL (≈ 21.8 µM)

Q: And the MIC (Candida albicans; read-out: MIC values, Candida albicans A 3192)?
A: 6 µg/mL (≈ 21.8 µM)

Q: What about the MIC (Candida albicans; read-out: MIC values, Candida albicans A 3194) of the same molecule?
A: 6 µg/mL (≈ 21.8 µM)

Q: And the MIC (Candida albicans; read-out: MIC values, Candida albicans A 3196)?
A: 12.5 µg/mL (≈ 45.4 µM)

Q: And the MIC (Fusarium (bulb))?
A: 18.8 µg/mL (≈ 68.3 µM)

Q: And the MIC (Fusarium (tulip))?
A: 12.5 µg/mL (≈ 45.4 µM)

Q: And the MIC (Fusarium solani; Fusarium solani)?
A: 12.5 µg/mL (≈ 45.4 µM)

Q: And the MIC (Rhizoctonia solani; Rhizoctonia solani)?
A: 1.5 µg/mL (≈ 5.45 µM)

Q: What about the MIC (Trichophyton equinum; read-out: MIC values, Trichophyton equinum 182-76) of the same molecule?
A: 3 µg/mL (≈ 10.9 µM)

Q: What about the MIC (Trichophyton equinum; read-out: MIC values, Trichophyton equinum 856-71) of the same molecule?
A: 3 µg/mL (≈ 10.9 µM)

Q: What about the MIC ([1]; read-out: MIC values, Trichophyton mentagrophytus 367-68) of the same molecule?
A: 0.8 µg/mL (≈ 2.91 µM)

Q: And the MIC ([1]; read-out: MIC values, Trichophyton mentagrophytus 421-67)?
A: 1.5 µg/mL (≈ 5.45 µM)

Q: And the MIC ([1]; read-out: MIC values, Trichophyton mentagrophytus A 3252)?
A: 0.8 µg/mL (≈ 2.91 µM)

Q: And the MIC ([1]; read-out: MIC values, Trichophyton mentagrophytus R 177)?
A: 3 µg/mL (≈ 10.9 µM)

Q: And the MIC ([1]; read-out: MIC values, Trichophyton mentagrophytus R 178)?
A: 12.5 µg/mL (≈ 45.4 µM)

Q: And the MIC ([1]; read-out: MIC values, Trichophyton mentagrophytus RRL 305)?
A: 1.5 µg/mL (≈ 5.45 µM)

Q: What about the MIC (Trichophyton quickeaneum; Trichophyton) of the same molecule?
A: 0.8 µg/mL (≈ 2.91 µM)

Q: What about the MIC (Trichophyton rubrum; read-out: MIC values, Trichophyton rubrum 494-62) of the same molecule?
A: 0.8 µg/mL (≈ 2.91 µM)

Q: What about the MIC (Trichophyton rubrum; read-out: MIC values, Trichophyton rubrum A 810) of the same molecule?
A: 0.8 µg/mL (≈ 2.91 µM)

Q: And the MIC ([2]; Trichophyton schoenleinii)?
A: 0.2 µg/mL (≈ 0.726 µM)

Q: And the MIC ([3]; Trichophyton)?
A: 12.5 µg/mL (≈ 45.4 µM)

Q: And the MIC (Trichophyton violoceum; Trichophyton)?
A: 0.2 µg/mL (≈ 0.726 µM)
